Laboratory results reported in publication PMC8344021, “Discovery of Small Molecule Bak Activator for Lung Cancer Therapy” (Theranostics, 2021).

What was measured:
[1] = test system: MDA-MB-231, MCF7, HCT-116, Ramos, OPM-1, PANC-1 and U2OS cell lines; assay: Apoptotic cell death in other types of cancer cell lines; type: cell-based, human; settings: 1μM, 72h
Method: Figure S2. BKA-073 induces mitochondrial priming and apoptosis in various type of cancers. (A) Expression levels of Bak were analyzed by Western blot in various type of cancer cell lines. (B-C) Various type of cancer cell lines were treated with BKA -073 (1µM) for 16h or 72h, followed by analysis of dynamic BH3 profiling (B) or apoptotic cell death (C), respectively.
Data represent the mean ± SD, n = 3 per group. ***P < 0.001, by 2-tailed t test.
(1 picture or pasted object on this page, not shown here)
Supplemental Materials and Methods
Small molecule NSC14073 (BKA-073) was obtained from the Drug Synthesis and Chemistry Branch, Developmental Therapeutic Program, Division of Cancer Treatment and Diagnosis, National Cancer Institute (NCI, Bethesda, MD) (http://dtp.nci.nih.gov/RequestCompounds).
Venetoclax (ABT-199, 205807) was purchased from MedKoo Biosciences (Morrisville, NC). […]
Cells were seeded at a density of 5 × 103 per well in 96-well plates and allowed to grow overnight. After treatment with BKA-073, the surviving cell fraction was determined using the sulforhodamine B (SRB) assay as described. Optical density (OD) was measured at 510nm in a microplate reader (Synergy H1, BioTek®, Winooski, VT). […]
Apoptotic cells were detected using Annexin-V Apoptosis Detection Kit (556547, BD Biosciences, San Jose, CA) according to the manufacturer’s instructions. […]

[2] = test system: A549-P, A549-IRR, H358-P, H358-IRR, H460-P and H460-IRR cells; assay: Colony formation assay in parental and radioresistant cells; type: cell-based, human; settings: 0.5 µM
Method: To further investigate whether Bak contributes to radioresistance, we established three lung cancer cell lines with ionizing radiation resistance (i.e. A549-IRR, H358-IRR and H460-IRR) as described, [52], [53]. […] A549-P, […] and H460-P cells remained sensitive to IR, but A549-IRR, H358-IRR and H460-IRR became insensitive to IR. […] To further test this in vivo, NSCLC xenografts derived from A549-P and A549-IRR cell lines were treated with IR (2Gy/exposure, every other day for total of 5 times) or BKA-073 (15 mg/kg/d) for 4 weeks. We observed that lung cancer xenografts derived from A549-IRR cells were resistant to IR treatment whereas xenografts derived from A549-P were sensitive to IR treatment (Figure S7C).
Figure S7. BKA-073 overcomes radioresistance of lung cancer in vitro and in vivo. (A) Expression levels of Bak in A549-P versus A549-IRR cells, H358-P versus H358 -IRR cells or H460-P versus H460-IRR cells were analyzed by Western blot. (B) A549-P, A549-IRR, H358-P, H358-IRR, H460-P and H460-IRR cells were treated with IR (5Gy), BKA -073 (0.5 µM), followed by colony formation assay. Data represent the mean ± SD, n = 3 per group. ***P < 0.001, ns: not significant, by 2-tailed t test. […]
Tumor volume was measured once every 2 days. After treatment, mice were sacrificed and tumors were removed and analyzed. […]

COc1ccc2nc3ccccc3c(NCCNCC(C)O)c2c1 (stereo not drawn) [BKA-073]
induction of apoptotic cell death [1]: potently induced
sensitivity (colony formation) ([2]; parental cell lines (A549-P, H358-P, H460-P)): sensitive
sensitivity (colony formation) ([2]; radioresistant cell lines (A549-IRR, H358-IRR, H460-IRR)): sensitive
